Data as given in ChEMBL document CHEMBL5223116, “Combination of NSAIDs with donepezil as multi-target directed ligands for the treatment of Alzheimer's disease” (Bioorg Med Chem Lett, 2022).
The source made the active and inactive calls. The rule behind the calls is not given here.

Tests used:
Acetylcholinesterase [1] = target: T1, Acetylcholinesterase (Homo sapiens, UniProt P22303); assay: Inhibition of AChE (unknown origin) at 10 uM by Ellman's method
Cholinesterase [2] = target: T2, Cholinesterase (Homo sapiens, UniProt P06276); assay: Inhibition of BChE (unknown origin) at 10 uM by Ellman's method
Acetylcholinesterase [3] = target: T1, Acetylcholinesterase; assay: Inhibition of AChE (unknown origin) by Ellman's method
Cholinesterase [4] = target: T2, Cholinesterase; assay: Inhibition of BChE (unknown origin) by Ellman's method
[5] = target: Prostaglandin G/H synthase 1 (Homo sapiens) (UniProt P23219); assay: Inhibition of COX-1 (unknown origin) by enzyme immunoassay
[6] = target: T3, Prostaglandin G/H synthase 2 (Homo sapiens) (UniProt P35354); assay: Inhibition of COX-2 (unknown origin) by enzyme immunoassay
T3 sequence (whole entry): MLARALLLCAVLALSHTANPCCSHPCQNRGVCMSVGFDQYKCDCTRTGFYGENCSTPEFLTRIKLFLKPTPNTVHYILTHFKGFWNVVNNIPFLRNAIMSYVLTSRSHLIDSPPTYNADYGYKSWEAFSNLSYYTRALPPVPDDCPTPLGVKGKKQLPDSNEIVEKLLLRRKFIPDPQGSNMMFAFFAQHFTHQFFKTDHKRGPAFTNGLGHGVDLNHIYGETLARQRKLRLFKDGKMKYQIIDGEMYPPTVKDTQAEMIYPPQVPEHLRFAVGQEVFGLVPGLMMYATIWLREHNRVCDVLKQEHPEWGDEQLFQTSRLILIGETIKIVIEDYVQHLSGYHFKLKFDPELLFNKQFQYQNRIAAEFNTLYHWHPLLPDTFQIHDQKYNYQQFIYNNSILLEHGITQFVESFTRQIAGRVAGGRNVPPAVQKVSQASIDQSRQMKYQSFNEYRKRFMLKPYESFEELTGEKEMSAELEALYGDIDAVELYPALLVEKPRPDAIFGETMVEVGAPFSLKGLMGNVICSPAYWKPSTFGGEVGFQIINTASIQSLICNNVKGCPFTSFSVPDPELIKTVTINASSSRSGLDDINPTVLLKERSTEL

BV-2 [7] = assay: Antiinflammatory activity in mouse BV-2 cells assessed as decrease in LPS-induced IL-1beta secretion at 5 uM preincubated for 6 hrs followed by LPS stimulation and measured after 24 hrs by qRT-PCR analysis (reference value: 3.76); format: functional; conditions: time 30 hrs
BV-2 [8] = assay: Antiinflammatory activity in mouse BV-2 cells assessed as decrease in LPS-induced IL-1beta secretion at 10 uM preincubated for 6 hrs followed by LPS stimulation and measured after 24 hrs by qRT-PCR analysis (reference value: 3.76); format: functional; conditions: time 30 hrs
BV-2 [9] = assay: Antiinflammatory activity in mouse BV-2 cells assessed as decrease in LPS-induced TNFalpha secretion at 5 uM preincubated for 6 hrs followed by LPS stimulation and measured after 24 hrs by qRT-PCR analysis (reference value: 3.91); format: functional; conditions: time 30 hrs
BV-2 [10] = assay: Antiinflammatory activity in mouse BV-2 cells assessed as decrease in LPS-induced TNFalpha secretion at 10 uM preincubated for 6 hrs followed by LPS stimulation and measured after 24 hrs by qRT-PCR analysis (reference value: 3.91); format: functional; conditions: time 30 hrs
PC-3 [11] = assay: Cytotoxicity against […] cells assessed as reduction in cell viability at 0.1 to 10 uM by MTT assay; format: toxicity, cell-based; conditions: dose 0.1-10 µM
PC-3 [12] = assay: Neuroprotective activity against Abeta42-induced cell death in […] cells by MTT assay; format: functional, cell-based; conditions: dose 0.1-10 µM
[13] = Stability of compound in PBS at pH 7.4 measured after 48 hrs by HPLC analysis; format: physicochemical; conditions: buffer, pH 7.4, 48 h
Cholinesterase [14] = target: T2, Cholinesterase; assay: Potency index, ratio of donepezil IC50 to test compound IC50 for BChE (unknown origin)

T2 sequence (P06276 whole entry): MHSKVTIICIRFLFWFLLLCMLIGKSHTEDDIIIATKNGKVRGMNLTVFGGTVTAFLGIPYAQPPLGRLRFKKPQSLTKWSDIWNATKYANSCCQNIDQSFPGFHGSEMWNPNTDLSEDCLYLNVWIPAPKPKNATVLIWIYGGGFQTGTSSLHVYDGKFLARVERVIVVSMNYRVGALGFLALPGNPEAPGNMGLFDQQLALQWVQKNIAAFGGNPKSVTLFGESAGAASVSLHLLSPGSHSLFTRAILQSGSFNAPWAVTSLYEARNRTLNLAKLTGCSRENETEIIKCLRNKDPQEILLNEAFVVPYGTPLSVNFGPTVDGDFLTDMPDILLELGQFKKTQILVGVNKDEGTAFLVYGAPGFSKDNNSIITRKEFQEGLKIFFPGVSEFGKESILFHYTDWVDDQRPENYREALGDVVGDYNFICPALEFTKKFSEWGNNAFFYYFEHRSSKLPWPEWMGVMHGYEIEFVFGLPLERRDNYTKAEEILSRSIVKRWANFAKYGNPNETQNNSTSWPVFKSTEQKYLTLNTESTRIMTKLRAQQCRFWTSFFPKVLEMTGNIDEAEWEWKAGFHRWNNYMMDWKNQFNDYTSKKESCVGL
T1 sequence (P22303 whole entry): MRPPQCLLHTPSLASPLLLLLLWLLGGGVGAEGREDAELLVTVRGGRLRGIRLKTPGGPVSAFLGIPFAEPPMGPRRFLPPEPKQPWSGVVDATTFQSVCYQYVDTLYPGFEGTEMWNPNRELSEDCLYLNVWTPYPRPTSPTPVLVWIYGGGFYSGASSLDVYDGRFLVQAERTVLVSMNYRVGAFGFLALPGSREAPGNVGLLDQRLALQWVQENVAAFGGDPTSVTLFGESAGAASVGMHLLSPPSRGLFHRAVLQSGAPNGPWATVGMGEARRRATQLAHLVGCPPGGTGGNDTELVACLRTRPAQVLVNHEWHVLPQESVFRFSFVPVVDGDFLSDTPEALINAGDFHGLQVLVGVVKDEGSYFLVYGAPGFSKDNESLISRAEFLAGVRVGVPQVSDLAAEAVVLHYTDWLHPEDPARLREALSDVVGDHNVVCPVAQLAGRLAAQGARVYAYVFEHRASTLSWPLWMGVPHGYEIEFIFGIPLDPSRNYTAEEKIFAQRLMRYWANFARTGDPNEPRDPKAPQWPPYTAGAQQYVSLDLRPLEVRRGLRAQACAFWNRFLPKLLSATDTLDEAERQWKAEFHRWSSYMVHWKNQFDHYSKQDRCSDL
Sequence of Prostaglandin G/H synthase 1 (Homo sapiens) (P23219 whole entry): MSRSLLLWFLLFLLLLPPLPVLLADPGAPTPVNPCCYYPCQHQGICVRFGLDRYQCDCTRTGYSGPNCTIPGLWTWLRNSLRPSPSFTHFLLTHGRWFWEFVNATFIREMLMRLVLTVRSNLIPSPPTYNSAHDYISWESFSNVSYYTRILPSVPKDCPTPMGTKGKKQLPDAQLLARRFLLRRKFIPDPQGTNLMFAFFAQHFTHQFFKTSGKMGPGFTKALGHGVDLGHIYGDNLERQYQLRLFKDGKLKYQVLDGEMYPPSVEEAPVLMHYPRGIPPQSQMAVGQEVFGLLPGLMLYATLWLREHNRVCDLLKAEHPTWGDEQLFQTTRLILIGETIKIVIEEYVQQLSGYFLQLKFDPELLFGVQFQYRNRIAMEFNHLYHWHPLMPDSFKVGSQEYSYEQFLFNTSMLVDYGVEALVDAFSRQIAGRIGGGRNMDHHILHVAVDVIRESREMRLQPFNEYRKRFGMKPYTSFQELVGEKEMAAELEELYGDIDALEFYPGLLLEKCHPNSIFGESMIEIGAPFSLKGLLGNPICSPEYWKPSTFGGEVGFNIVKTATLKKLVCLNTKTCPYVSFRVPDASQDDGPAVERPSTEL

SMILES	IC50 (Acetylcholinesterase [3])	IC50 (Cholinesterase [4])	other results
CC(=O)Oc1ccccc1C(=O)O			inhibition (Acetylcholinesterase [1]): inactive; inhibition (Cholinesterase [2]): inactive
COc1cc2c(cc1OC)/C(=N\NC(=O)CCNC(=O)C(C)c1ccc(CC(C)C)cc1)C(CC1CCN(Cc3ccccc3)CC1)C2 (centres undefined)	4850 nM	11600 nM	
COc1ccc2cc([C@H](C)C(=O)N/N=C3\c4cc(OC)c(OC)cc4CC3CC3CCN(Cc4ccccc4)CC3)ccc2c1 (some centres undefined)	150 nM	880 nM	
COc1cc2c(cc1OC)/C(=N\NC(=O)CNC(=O)C(C)c1ccc(CC(C)C)cc1)C(CC1CCN(Cc3ccccc3)CC1)C2 (centres undefined)	1190 nM	1640 nM	
COc1cc2c(cc1OC)/C(=N\NC(=O)c1ccccc1OC(C)=O)C(CC1CCN(Cc3ccccc3)CC1)C2 (centres undefined)	46 nM	800 nM	
COc1cc2c(cc1OC)/C(=N\NC(=O)C(NC(=O)C(C)c1ccc(CC(C)C)cc1)C(C)C)C(CC1CCN(Cc3ccccc3)CC1)C2 (centres undefined)	400 nM	3230 nM	
COc1cc2c(cc1OC)/C(=N\N)C(CC1CCN(Cc3ccccc3)CC1)C2 (centres undefined)	190 nM	2540 nM	
COc1ccc2c(c1)c(CC(=O)O)c(C)n2C(=O)c1ccc(Cl)cc1			inhibition (Acetylcholinesterase [1]): inactive; inhibition (Cholinesterase [2]): inactive
COc1ccc2c(c1)c(CC(=O)N/N=C1\c3cc(OC)c(OC)cc3CC1CC1CCN(Cc3ccccc3)CC1)c(C)n2C(=O)c1ccc(Cl)cc1 (centres undefined)	510 nM	8530 nM	
CC(C)Cc1ccc(C(C)C(=O)O)cc1 (centres undefined)			inhibition (Acetylcholinesterase [1]): inactive; inhibition (Cholinesterase [2]): inactive
COc1cc2c(cc1OC)/C(=N\NC(=O)C(CC(C)C)NC(=O)C(C)c1ccc(CC(C)C)cc1)C(CC1CCN(Cc3ccccc3)CC1)C2 (centres undefined)	350 nM	20200 nM	
COc1cc2c(cc1OC)/C(=N\NC(=O)C(C)c1ccc(CC(C)C)cc1)C(CC1CCN(Cc3ccccc3)CC1)C2 (centres undefined)	15 nM	800 nM	inhibition [5]: Dose-Dependent Effect; inhibition [6]: Dose-Dependent Effect; Activity (BV-2 [7]): 1.19; Activity (BV-2 [8]): 0.78; Activity (BV-2 [9]): 1.51; Activity (BV-2 [10]): 1.12; Activity (PC-3 [11]): Non-Toxic; Activity (PC-3 [12]): Dose-Dependent Effect; Stability [13]: Stable; Ratio IC50 (Cholinesterase [14]): 5
